Experimental findings from ChEMBL document CHEMBL2034890, “Polyhydroxylated macrolides from Seimatosporium discosioides and their effects on the activation of peroxisome proliferator-activated receptor gamma” (J Nat Prod, 2012) are described below.

pEC50: −log10 of the molar value. Calls of active or inactive are those of the source. No cut-off for these calls is given here.

What all share (type): functional, cell-based
Test [1] addresses T1, Peroxisome proliferator-activated receptor gamma (Homo sapiens) (UniProt P37231).
T1 sequence (whole entry): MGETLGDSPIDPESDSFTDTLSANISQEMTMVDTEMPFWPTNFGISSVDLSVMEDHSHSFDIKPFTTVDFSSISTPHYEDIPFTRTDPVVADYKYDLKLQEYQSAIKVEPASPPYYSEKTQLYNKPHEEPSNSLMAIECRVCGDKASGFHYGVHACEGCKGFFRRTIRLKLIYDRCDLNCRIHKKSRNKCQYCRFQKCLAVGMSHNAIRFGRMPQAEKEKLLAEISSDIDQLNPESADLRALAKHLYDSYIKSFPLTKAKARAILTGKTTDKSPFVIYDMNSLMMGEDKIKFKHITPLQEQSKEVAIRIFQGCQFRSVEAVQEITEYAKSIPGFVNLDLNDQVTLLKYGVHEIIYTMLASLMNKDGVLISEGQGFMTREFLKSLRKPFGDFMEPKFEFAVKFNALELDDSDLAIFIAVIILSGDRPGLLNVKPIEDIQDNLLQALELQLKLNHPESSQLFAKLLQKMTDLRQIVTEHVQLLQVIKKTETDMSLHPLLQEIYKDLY
The test can be described thus: (§1) Agonist activity at human recombinant PPARgamma expressed in CHO cells cotransfected with pGL3-PPRE3-TK-luc reporter assessed as beta-galactosidase activity at after 24 hrs by luciferase based transactivation assay.

Test [2] deals with T2, Peroxisome proliferator-activated receptor delta (Homo sapiens) (UniProt Q03181).
T2 sequence (whole entry): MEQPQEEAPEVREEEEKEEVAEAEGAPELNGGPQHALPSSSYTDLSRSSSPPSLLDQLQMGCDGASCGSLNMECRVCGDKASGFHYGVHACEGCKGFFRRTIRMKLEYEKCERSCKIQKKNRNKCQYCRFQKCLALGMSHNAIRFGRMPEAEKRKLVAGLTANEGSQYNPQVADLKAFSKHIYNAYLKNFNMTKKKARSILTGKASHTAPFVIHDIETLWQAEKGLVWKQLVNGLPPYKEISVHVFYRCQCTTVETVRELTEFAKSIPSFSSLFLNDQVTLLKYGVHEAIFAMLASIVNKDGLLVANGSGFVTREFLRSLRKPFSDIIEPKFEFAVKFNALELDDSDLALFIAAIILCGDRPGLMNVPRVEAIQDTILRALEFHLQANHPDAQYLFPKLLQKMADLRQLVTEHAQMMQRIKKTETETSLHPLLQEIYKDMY
Kind of test: Agonist activity at human recombinant PPARbeta expressed in CHO cells cotransfected with pGL3-PPRE3-TK-luc reporter assessed as beta-galactosidase activity at 20 uM after 24 hrs by luciferase based transactivation assay.

Test [3] addresses T3, Peroxisome proliferator-activated receptor alpha (Homo sapiens) (UniProt Q07869).
T3 sequence (whole entry): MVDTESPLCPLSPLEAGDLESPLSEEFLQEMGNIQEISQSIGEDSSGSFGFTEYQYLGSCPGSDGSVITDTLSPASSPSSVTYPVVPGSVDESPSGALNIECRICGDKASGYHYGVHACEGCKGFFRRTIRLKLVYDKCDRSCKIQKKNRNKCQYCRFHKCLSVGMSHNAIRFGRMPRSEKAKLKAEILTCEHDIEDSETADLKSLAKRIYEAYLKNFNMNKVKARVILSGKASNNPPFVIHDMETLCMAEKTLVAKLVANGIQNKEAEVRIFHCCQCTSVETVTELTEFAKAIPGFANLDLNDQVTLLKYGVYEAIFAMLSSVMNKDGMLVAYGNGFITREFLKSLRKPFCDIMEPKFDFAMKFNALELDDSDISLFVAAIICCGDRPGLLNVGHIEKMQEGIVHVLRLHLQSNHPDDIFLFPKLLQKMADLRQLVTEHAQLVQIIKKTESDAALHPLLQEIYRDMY
The test can be described thus: Agonist activity at human recombinant PPARalpha expressed in CHO cells cotransfected with pGL3-PPRE3-TK-luc reporter assessed as beta-galactosidase activity at 20 uM after 24 hrs by luciferase based transactivation assay.

The target in test [4] is T4, Peroxisome proliferator-activated receptor gamma (Homo sapiens, UniProt P37231).
T4 sequence (P37231 whole entry): T1 sequence (whole entry)
Described as §1.

Test [5] concerns the target T1, Peroxisome proliferator-activated receptor gamma (Homo sapiens). The test can be described thus: Agonist activity at PPARgamma in human HepG2 cells assessed as downregulation of glucose-6-phosphatase mRNA at 0.5 to 12.5 uM by RT-PCR analysis.
For test [6] the target is unchanged. Kind of test: Agonist activity at PPARgamma in human HepG2 cells assessed as up-regulation of PPARgamma mRNA expression by RT-PCR analysis.
Test [7] shares this target. Kind of test: Agonist activity at PPARgamma in human HepG2 cells assessed as change in stearoyl CoA desaturase 1 mRNA at 0.5 to 12.5 uM by RT-PCR analysis.
Test [8] shares this target. Kind of test: Agonist activity at PPARgamma in human HepG2 cells assessed as up-regulation of PPARgamma mRNA at 0.5 to 12.5 uM by RT-PCR analysis relative to control.
Test [9] has the same target. Kind of test: Agonist activity at PPARgamma in human HepG2 cells assessed as downregulation of phosphoenolpyruvate carboxykinase mRNA at 0.5 to 12.5 uM by RT-PCR analysis.

The term pEC50 denotes the EC50 on a negative log10 scale, so that one unit is a factor of ten.

For the molecule `COc1cc(O)c2c(c1)C(=O)c1cocc1C2=O`, the outcome in [1], in test [2] and in test [3] was inactive.

Consider `COc1cc(O)c2c(c1)[C@@H](O)[C@@]1(O)COC[C@H]1C2=O`, for which the result in test [1], in test [2] and in test [3] was inactive.

Take `COc1cc(O)c2c(c1)[C@@H](O)[C@@]13CO[C@@H](O)[C@@]1(O3)C2=O`: the result in test [1], in test [2] and in test [3] was inactive.

Regarding `CCCCCCCCC[C@H]1C[C@@H](O)[C@H](O)/C=C/[C@H](O)CC(=O)O1` [SEIMATOPOLIDE A], the pEC50 in test [4] is 5.94. Moreover, the result in test [2], in test [7] and in test [3] was inactive. Moreover, the result in test [5] and in [9] was Active. Moreover, the Activity entry in test [6] was “Dose-dependent effect”. In addition, in [8], the fold change (FC) was 2.

Turning to `CCCCCCCCC[C@H]1CC[C@H](O)/C=C/[C@H](O)CC(=O)O1` [SEIMATOPOLIDE B], the pEC50 in test [4] is 4.96. For the same molecule, the result in test [2] and in test [3] was inactive.
